Like-named read-outs stand apart in the source and are kept apart here. Where a SMILES comes first, the peptide text is derived from it.
Tests used:
[1] = target: T1, 6-HB formation between N46 and C34 (Human immunodeficiency virus type 1 group M subtype B, UniProt P04578); assay: Inhibition of 6-HB formation between N46 and C34 (ELISA, NC-1); format: biochemical, HIV-1; conditions: ELISA with NC-1 mAb; 1 μM N46; 37 °C 30 min then 1 h; A450
T1 construct: NHR peptide N46 (aa 536-581 of NHR)
Method: The inhibitory activity of peptides on 6-HB formation was measured by a modified ELISA as previously described. Briefly, a 96-well polystyrene plate (Costar, Corning Inc., Corning, NY, USA) was coated with 50 μL 2 μg/mL NY364 (a polyclonal antibody for HIV-1 gp41 subunit) in 0.1 M Tris buffer (pH 8.8). A mixture of 1 μM N46 and C-peptide with graded concentrations was added to the coated plate after incubation at 37 °C for 30 min. After another 1 hour incubation at 37 °C, the plate was washed with washing buffer (PBS containing 0.1% Tween 20) three times and refilled by 50 μL 1 μg/mL NC-1 (a monoclonal antibody specific for HIV-1 gp41 6-HB formed by NHR and CHR). Afterwards, 50 μL of horseradish peroxidase (HRP)-labeled rabbit anti-mouse antibody (Sigma, St. Louis, MO, USA) (1:4000 diluted) were added to the wells of plate, followed by incubation for 1 h and washing. Finally, the substrate 3,3,5,5-tetramethylbenzidine (TMB, Sigma, St. Louis, MO, USA) was added. Absorbance at 450 nm (A450) was tested by an ELISA reader (Ultra 384, Tecan, NC, USA).

[2] = tested on: cell–cell fusion between H9/HIV-1IIIB cells and MT-2 cells; conditions: read-out: IC50, cell–cell fusion; H9/HIV-1IIIB (Calcein AM) with MT-2 cells, 37 °C, 2 h
Method: A dye transfer assay was used to detect HIV-1 Env-mediated cell-cell fusion as described previously. […] For each well of the 96-well plate, 50 μL 2 × 10^4/mL labeled H9/HIV-1IIIB cells were then incubated with 100 μL 1 × 10^5/mL MT-2 cells at 37 °C for 2 h in the presence or absence of the tested peptide at graded concentrations. […] The IC50 values were calculated by using the Calcusyn computer program (Biosoft, Ferguson, MO, USA).

90US_873 (B, R5) = conditions: clinical isolate 90US_873 (B, R5); CEMx174 5.25 M7 cells, p24 ELISA day 7
Method: (§1) Inhibitory activities of peptides on infection by laboratory-adapted HIV-1 X4 strain IIIB and HIV-1 R5 strain Bal, and HIV-1 clinical strains, as well as T20-, T2635- and HP23-resistant strains, were determined as described previously. For each well of the 96-well plate, 104 MT-2 cells or CEMx174 5.25 M7 cells with graded concentrations of peptide were infected by […] TCID50 of the HIV-1 virus X4 or R5 strains, respectively. After overnight culture, the medium was replaced with fresh RPMI 1640 medium containing 10% FBS. Fifty microliters of culture supernatant were collected from each well on the fourth day for MT-2 cells and the seventh day for CEMx174 5.25 M7 cells. The supernatant was mixed with equal volumes of 5% Triton X-100. The p24 antigen was detected by ELISA as previously described. IC50 values were calculated using the Calcusyn software program (Biosoft, Ferguson, MO, USA).

92TH009 (A/E, R5) = conditions: clinical isolate 92TH009 (A/E, R5); CEMx174 5.25 M7 cells, p24 ELISA day 7
Method: as §1

92UG024 (D, X4) = conditions: clinical isolate 92UG024 (D, X4); MT-2 cells, p24 ELISA day 4
Method: as §1

93BR020 (F, X4/R5) = conditions: clinical isolate 93BR020 (F, X4/R5); p24 ELISA
Method: as §1

93IN101 (C, R5) = conditions: clinical isolate 93IN101 (C, R5); CEMx174 5.25 M7 cells, p24 ELISA day 7
Method: as §1

BK132/GS009 (B, X4) = conditions: clinical isolate BK132/GS009 (B, X4); MT-2 cells, p24 ELISA day 4
Method: as §1

HIV-1 A6V = conditions: T2635-resistant A6V; p24 ELISA
Method: as §1

HIV-1 Bal (R5 virus) = conditions: read-out: IC50, HIV-1 Bal infection; CEMx174 5.25 M7 cells; p24 ELISA, seventh day
Method: as §1

HIV-1 D36G/E49K/N126K = conditions: HP23-resistant D36G/E49K/N126K; p24 ELISA
Method: as §1

HIV-1 E49K/N126K = conditions: HP23-resistant E49K/N126K; p24 ELISA
Method: as §1

HIV-1 E49K = conditions: HP23-resistant E49K; p24 ELISA
Method: as §1

HIV-1 H3C = conditions: T2635-resistant H3C; p24 ELISA
Method: as §1

HIV-1 IIIB (X4 virus) = conditions: read-out: IC50, HIV-1 IIIB infection; MT-2 cells; p24 ELISA, fourth day
Method: as §1

HIV-1 K154Q = conditions: T2635-resistant K154Q; p24 ELISA
Method: as §1

HIV-1 K90E/N126K = conditions: T2635-resistant K90E/N126K; p24 ELISA
Method: as §1

HIV-1 K90E = conditions: T2635-resistant K90E; p24 ELISA
Method: as §1

[3] = tested on: HIV-1 L34S/D36G/E49K/E136G; conditions: HP23-resistant L34S/D36G/E49K/E136G; p24 ELISA
Method: as §1

HIV-1 N113E = conditions: T2635-resistant N113E; p24 ELISA
Method: as §1

HIV-1 N126K = conditions: T2635-resistant N126K; p24 ELISA
Method: as §1

HIV-1 Q66R/N113E = conditions: T2635-resistant Q66R/N113E; p24 ELISA
Method: as §1

HIV-1 Q66R = conditions: T2635-resistant Q66R; p24 ELISA
Method: as §1

HIV-1 Q79E/N126K = conditions: T2635-resistant Q79E/N126K; p24 ELISA
Method: as §1

HIV-1 Q79E = conditions: T2635-resistant Q79E; p24 ELISA
Method: as §1

HIV-1 V38A, N42D = conditions: T20-resistant V38A, p24 ELISA
Method: as §1

HIV-1 V38A, N42T = conditions: T20-resistant V38A, p24 ELISA
Method: as §1

HIV-1 V38A = conditions: T20-resistant V38A; p24 ELISA
Method: as §1

HIV-1 V38E, N42S = conditions: T20-resistant V38E, p24 ELISA
Method: as §1

HIV-1 WT = conditions: WT of T20-resistant panel; p24 ELISA
Method: as §1

HIV-1 wild-type = conditions: p24 ELISA
Method: as §1

KER2018 (A, R5) = conditions: clinical isolate KER2018 (A, R5); CEMx174 5.25 M7 cells, p24 ELISA day 7
Method: as §1

KNH1135 (A, R5) = conditions: clinical isolate KNH1135 (A, R5); CEMx174 5.25 M7 cells, p24 ELISA day 7
Method: as §1

NP1525 (A/E, X4/R5) = conditions: clinical isolate NP1525 (A/E, X4/R5); p24 ELISA
Method: as §1

US4GS007 (B, R5) = conditions: clinical isolate US4GS007 (B, R5); CEMx174 5.25 M7 cells, p24 ELISA day 7
Method: as §1

[4] = clinical use; cited from earlier work

T1 sequence (P04578 536-581): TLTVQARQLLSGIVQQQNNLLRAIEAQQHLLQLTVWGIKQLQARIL

CC[C@H](C)[C@H](NC(=O)[C@H](CCC(=O)O)NC(=O)[C@H](CCC(=O)O)NC(=O)[C@@H](NC(=O)[C@H](CCCCN)NC(=O)[C@H](CCCCN)NC(=O)[C@@H](NC(=O)[C@H](Cc1ccc(O)cc1)NC(=O)[C@H](CCC(=O)O)NC(=O)[C@H](CCC(=O)O)NC(=O)[C@@H](NC(=O)[C@H](CCCCN)NC(=O)[C@H](CCCCN)NC(=O)[C@H](CCC(=O)O)NC(=O)[C@H](Cc1c[nH]c2ccccc12)NC(=O)[C@H](CCC(=O)O)NC(=O)[C@H](CCC(=O)O)NC(=O)[C@H](Cc1c[nH]c2ccccc12)NC(=O)[C@@H](NC(=O)[C@H](CCSC)NC(=O)[C@@H](N)CCC(=O)O)[C@@H](C)O)[C@@H](C)CC)[C@@H](C)O)[C@@H](C)CC)C(=O)N[C@@H](CC(C)C)C(=O)N[C@@H](CCCCN)C(=O)O [HP23] (H-EMTWEEWEKKIEEYTKKIEEILK-OH)
IC50 [1]: 3720 nM
IC50 [2]: 5.12 nM
IC50 (90US_873 (B, R5)): 3.4 ± 0.6 nM
IC50 (92TH009 (A/E, R5)): 0.8 ± 0.2 nM
IC50 (92UG024 (D, X4)): 3.5 ± 0.2 nM
IC50 (93BR020 (F, X4/R5)): 4.5 ± 0.2 nM
IC50 (93IN101 (C, R5)): 3.7 ± 0.3 nM
IC50 (BK132/GS009 (B, X4)): 7.2 ± 0.5 nM
IC50 (HIV-1 A6V): 1.6 ± 0.5 nM
IC50 (HIV-1 Bal (R5 virus)): 5.96 nM
IC50 (HIV-1 D36G/E49K/N126K): > 60 nM
IC50 (HIV-1 E49K/N126K): 53.8 ± 1.2 nM
IC50 (HIV-1 E49K): 13.4 ± 0.7 nM
IC50 (HIV-1 H3C): 5.4 ± 0.4 nM
IC50 (HIV-1 IIIB (X4 virus)): 1.68 nM
IC50 (HIV-1 K154Q): 7.4 ± 0.4 nM
IC50 (HIV-1 K90E/N126K): 4.2 ± 0.3 nM
IC50 (HIV-1 K90E): 9.4 ± 0.3 nM
IC50 [3]: > 60 nM
IC50 (HIV-1 N113E): 2.3 ± 0.5 nM
IC50 (HIV-1 N126K): 8.6 ± 0.4 nM
IC50 (HIV-1 Q66R/N113E): 3.6 ± 0.3 nM
IC50 (HIV-1 Q66R): 2.8 ± 0.1 nM
IC50 (HIV-1 Q79E/N126K): 5.2 ± 0.4 nM
IC50 (HIV-1 Q79E): 4.2 ± 0.7 nM
IC50 (HIV-1 V38A, N42D): 2.9 ± 0.3 nM
IC50 (HIV-1 V38A, N42T): 1.5 ± 0.3 nM
IC50 (HIV-1 V38A): 2.1 ± 0.7 nM
IC50 (HIV-1 V38E, N42S): 6.2 ± 0.3 nM
IC50 (HIV-1 WT): 3.1 ± 0.1 nM
IC50 (HIV-1 wild-type; wild-type of HP23-resistant panel): 3.3 ± 0.3 nM
IC50 (HIV-1 wild-type; wild-type of T2635-resistant panel): 2.8 ± 0.2 nM
IC50 (KER2018 (A, R5)): 1.9 ± 0.2 nM
IC50 (KNH1135 (A, R5)): 2.2 ± 0.3 nM
IC50 (NP1525 (A/E, X4/R5)): 9.5 ± 0.6 nM
IC50 (US4GS007 (B, R5)): 3.9 ± 0.6 nM

enfuvirtide
IC50 [2]: 16.6 nM
half-life (in words) [4]: short half-life
oral bioavailability (in words) [4]: lack of oral bioavailability
